Data from ChEMBL document CHEMBL4406816, “Role of sulphur-heterocycles in medicinal chemistry: An update” (Eur J Med Chem, 2019).
Converted amounts (≈) assume the structure as drawn.

System: Mycobacterium tuberculosis variant bovis
Experiment: Antitubercular activity against Mycobacterium bovis
Assay type: functional

For `Fc1ccc(-c2cn(Cc3csc(-c4ccccc4)n3)nn2)cc1`, the MIC was 1.69 µg/mL (≈ 5.02 µM).
